This is an account of results in patent publication US12564641B2 (EISAI R&D MANAGEMENT CO., LTD., priority 2019, dated 2026).

For orientation: IC50 means the point on the concentration scale where inhibition reaches its midpoint. The term Kd denotes the equilibrium constant for the complex coming apart.

In one data set the test system is human NSCLC PDX LXFL-529. Briefly: Human NSCLC PDX model LXFL-529. To be noted: 12.5 mg/kg i.v. The text has this:
(§1) Animals: Female NMRI nu/nu mice, 4 to 6 weeks of age.
Xenotransplantation: LXFL-529 established growing tumor (T3N1M0) from a primary non-small cell lung adenocarcinoma human patient.
Experimental procedure: Animals were monitored until the tumor implants reached the study volume criteria of 50-250 mm^3 (e.g., 80-200 mm^3) in a sufficient number of animals. […] The process of the assignment to groups (enrollment, stratified randomization) may also be referred to as randomization. The day of randomization was designated as day 0 of the experiment.
(§2) Tumors were measured and mice were weighed twice a week during the experimental period. The first day of dosing was day 1, one day after randomization (day 0).

For the next data set, the system named is human NSCLC PDX LXFA-586. The experiment in a line: Human NSCLC PDX model LXFA-586. To be noted: 25 mg/kg single dose i.v.
From the text: as §1
Xenotransplantation: LXFA-586 established growing tumor (T2N1M0) from a primary non-small cell lung adenocarcinoma human patient.
Experimental procedure: Animals were monitored until the tumor implants reached the study volume criteria of 50-250 mm^3 (e.g., 80-200 mmi) in a sufficient number of animals. […] The process of the assignment to groups (enrollment, stratified randomization) may also be referred to as randomization. The day of randomization was designated as day 0 of the experiment.
as §2

The subject of a further data set is MSLN-negative cell lines. The experiment in a line: In vitro cytotoxicity (IC50, Crystal Violet) on MSLN-negative cell lines (Example 11). It is filed as cell-based. To be noted: for IC50: read-out: In vitro cell based potency, IC50. Here is the method: Plates were incubated at 37° C. 5% CO2 for an additional 5 days. […] Plates were read at 570 nm.
For data set [1], the system named is human gastric cancer NCI-N87 xenograft. The experiment in a line: Human gastric cancer NCI-N87 xenograft model (Example 15). It is filed as in vivo, mouse. To be noted: 5 mg/kg. Here is the method:
(§3) 100 μL/mouse of the mixture was injected subcutaneously.
(In general: In xenograft studies the graft and the host belong to different species.)

The next data set has as its system MSLN-positive cell lines. Briefly: In vitro cytotoxicity (IC50, Crystal Violet) on MSLN-positive cell lines (Example 11). To be noted: for IC50: read-out: In vitro cell based potency, IC50.
Data set [2] relates to human mesothelioma PDX Meso7212. Briefly: Human mesothelioma PDX model Meso7212 (Example 17). Type of data set: in vivo, mouse. To be noted: 10 mg/kg single dose i.v. Here is the method: Xenotransplantation: On day 0. Meso 7212 tumors were removed from the five donor mice under sterile conditions.
Experimental procedure: After the xenotransplantation, the engraftment and the propagation of the tumor in the mice were controlled at least twice weekly by palpation. When the tumor was palpable, the measurements of tumor diameters were performed with a digital caliper (Mitutoyo).
From the first treatment day onwards, tumor volumes and body weights were recorded twice weekly. The animal welfare was controlled twice daily.
Treatment: All agents were administered intravenously as a single dose on the day of randomization. Animals in the control group were treated with DPBS in the same manner.

Data set [3] relates to human mesothelioma HAY xenograft. Briefly: Human mesothelioma HAY xenograft model (Example 16). Type of data set: in vivo, mouse. The note with it: 5 mg/kg. Here is the method: as §3
Data set [4] has as its system MSLN-expressing CHO cells. The experiment in a line: ADCC activity, luciferase assay with Jurkat-Effector cells. Type of data set: cell-based. Here is the method: MSLN-expressing CHO cells were thawed and seeded 1.000 cells/well (25 μL) in 96-well tissue culture plates in complete RPMI-4% Ultralow IgG FBS. […] 6,000 Jurkat-Effector cells (Promega) were thawed and added (25 μL) to the cell plate, and the plate was incubated at 37° C. 5% CO2 for 18-22 hours.
Luciferase assay reagent was thawed in the dark. 75 μL of luciferase assay reagent was added to each well, plates were shaken for 30 sec on a plate shaker. Plates were read on a luminometer after 5 min incubation.

Another data set concerns the target mesothelin (Homo sapiens, UniProt Q13421). Briefly: Surface plasmon resonance (BIAcore) binding analysis of anti-mesothelin antibodies. The note with it: Table 15; rabbit-human chimeric antibodies, individual curves. Here is the method:
Anti-mesothelin antibody binding affinity to mesothelin was measured by BIAcore (BIAcore T-100, GE healthcare, #1426075), using a series S CM5 chip. Antibody concentrations were adjusted to 1 μg/mL and mesothelin (50 μg) to 100 nM in 1×HBS-P+ buffer (GE Healthcare). Anti-human antibody capture chip was prepared according to the manufacturer's protocol using a CM5 chip with immobilization wizard. Final capture antibody levels were 8000-9000 RU, in HBS-P+. Chip was prepared for assay with five cycles of 300 sec buffer injection followed by 30 sec regeneration, all at 30 μL/min across all four flow cells. Antibodies were captured on flow cells 2-4 by sequential injections of individual ligand solutions for 90 sec at 10 μL/min. Analyte injection was done in a single-cycle kinetics manner by sequential injections of analyte solutions from low to high concentration for 240 sec each at 30 μL/min. Detection was 2-1, 3-1, 4-1. Double-referencing was performed by a sequence of identical ligand capture injections, followed by 5 buffer-only injections for 240 sec each, dissociation for 1800 sec, and regeneration as above. All ligands were analyzed for binding to mesothelin in duplicate. Kinetic analysis was performed using BIAEvaluations software using a 1:1 Langmuir fitting model. On-rate, off-rate, and affinity constants were averaged from duplicate runs.

For a further data set, the target named is T1, rat mesothelin (Rattus norvegicus, UniProt Q9ERA7).
T1 sequence (Q9ERA7 36-600): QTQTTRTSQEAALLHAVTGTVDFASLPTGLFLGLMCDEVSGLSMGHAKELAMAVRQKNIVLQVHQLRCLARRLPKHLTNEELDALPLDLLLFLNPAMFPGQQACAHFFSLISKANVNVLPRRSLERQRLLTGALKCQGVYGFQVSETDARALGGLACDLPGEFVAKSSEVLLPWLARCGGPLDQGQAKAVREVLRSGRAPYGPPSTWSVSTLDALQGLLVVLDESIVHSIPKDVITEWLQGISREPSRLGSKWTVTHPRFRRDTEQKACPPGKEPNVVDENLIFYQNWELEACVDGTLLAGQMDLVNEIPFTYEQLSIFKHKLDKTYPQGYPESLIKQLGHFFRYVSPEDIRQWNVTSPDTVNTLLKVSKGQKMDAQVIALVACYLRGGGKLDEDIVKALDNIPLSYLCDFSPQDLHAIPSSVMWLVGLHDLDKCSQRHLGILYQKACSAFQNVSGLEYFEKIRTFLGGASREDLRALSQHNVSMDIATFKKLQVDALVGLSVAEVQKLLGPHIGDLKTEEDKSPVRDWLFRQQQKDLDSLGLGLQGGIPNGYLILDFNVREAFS
Briefly: BIAcore binding affinity, rat mesothelin (Example 10). The method, then:
(§4) Binding affinity: Binding measurements were performed in HBS-P+ buffer on a BIAcore T-100 instrument. Antibodies were diluted to 1 μg/mL in HBS-P+. Samples were centrifuged at 14,000×g for 5 min at room temperature and then supernatants were transferred to a new 1.5 mL BIAcore tube and capped. Mesothelin (50 μg) was diluted to 100 nM in 1×HBS-P+ buffer, then serial diluted 5-fold at 100, 20, 4, 0.8, and 0.16 nM in BIAcore tubes and capped. Anti-human antibody capture chip was prepared according to the manufacturer's protocol using a CM5 chip with immobilization wizard. Final capture antibody levels were 8000-9000RU, in HBS-P+. Chip was prepared for assay with five cycles of 300 sec buffer injection followed by 30 sec regeneration, all at 30 μL/min across all four flow cells.
(§5) Antibodies were captured on flow cells 2-4 by sequential injections of individual ligand solutions for 90 sec at 10 μL/min. Analyte injection was done in a single-cycle kinetics manner by sequential injections of analyte solutions from low to high concentration for 240 sec each at 30 μL/min. Detection was 2-1, 3-1, 4-1. Double-referencing was performed by a sequence of identical ligand capture injections, followed by 5 buffer-only injections for 240 sec each, dissociation for 1800 sec, and regeneration as above. All ligands were analyzed for binding to mesothelin in duplicate. […]
(In general: Surface plasmon resonance follows binding to a sensor surface in real time, without labels.)

Data set [5] has as its system cynomolgus monkey mesothelin. The experiment in a line: BIAcore binding affinity, cynomolgus monkey mesothelin (Example 10). Here is the method: as §4, §5
Where [6] appears, read: NCI-H292 cells (MSLN MFI 108.6).
Where [7] appears, read: NCI-H1568/MSLN cells (MSLN MFI 4474.00).
Where [8] appears, read: OVCAR3-A1 cells (MSLN MFI 220.0).
The mark [9] stands for this setting: Table 34: BAY 94-9343 and anetumab, MSLN-expressing CHO cells, Jurkat-Effector cells.

Entries after “also recorded” stand apart in the source; their conditions may differ. Read-outs that look alike come from different tables or passages of the source. Some results are limits rather than exact numbers.

mesothelin, sequence (Q13421 with tags, fused parts or gaps): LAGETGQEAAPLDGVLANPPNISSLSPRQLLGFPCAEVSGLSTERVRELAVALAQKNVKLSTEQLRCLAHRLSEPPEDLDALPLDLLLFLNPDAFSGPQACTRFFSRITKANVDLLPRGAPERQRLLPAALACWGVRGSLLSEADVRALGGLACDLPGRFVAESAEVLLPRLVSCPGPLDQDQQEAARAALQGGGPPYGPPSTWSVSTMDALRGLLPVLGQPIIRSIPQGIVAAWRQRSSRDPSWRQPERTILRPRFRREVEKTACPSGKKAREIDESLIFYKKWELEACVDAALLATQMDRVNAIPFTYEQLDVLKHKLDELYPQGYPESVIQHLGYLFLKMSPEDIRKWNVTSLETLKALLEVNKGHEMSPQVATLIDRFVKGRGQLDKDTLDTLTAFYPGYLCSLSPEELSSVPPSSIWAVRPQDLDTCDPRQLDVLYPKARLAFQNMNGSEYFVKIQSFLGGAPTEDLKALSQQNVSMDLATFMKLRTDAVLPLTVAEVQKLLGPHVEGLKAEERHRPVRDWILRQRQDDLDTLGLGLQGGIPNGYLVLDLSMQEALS
Protocol for MSLN-positive cell lines: Cytotoxicity: Cells were sub-cultured and seeded at 5,000 cells/well in complete growth medium in 96-well tissue culture plates, and incubated at 37° C., 5% CO2 overnight (16 hours). Test reagents were serially diluted 1:3 in 2 mL deep-well dilution plates, starting at 200 nM (10 dilutions total). Diluted samples (100 μL) were added to the cell plates (starting concentration of test samples at 100 nM). Plates were incubated at 37° C. 5% CO2 for an additional 5 days. Medium was then discarded, and plates were washed once with 200 μL DPBS, stained with 50 μL of 0.2% Crystal Violet solution at room temperature for 15 min, and then washed extensively with tap water. Plates were air-dried, and Crystal Violet was dissolved with 200 μL of 1% SDS solution. Plates were read at 570 nm. Data was analyzed for IC50 determination using GraphPad Prism 6.

As for “BAY 94-9343: ADC comprising anetumab conjugated to the maytansinoid tubulin inhibitor DM4 via a reducible SPDB linker”, the anti-tumor efficacy result with human NSCLC PDX LXFL-529 is “no anti-tumor efficacy”; in the data set with human NSCLC PDX LXFA-586, “robust anti-tumor efficacy similar to MORAb-109”. Also, the “Tq (tumor volume quadrupling time)” value in the data set on human NSCLC PDX LXFA-586 is “not reached”. Also, the “cytotoxicity on MSLN-negative cell lines” value with MSLN-negative cell lines was “killing on both MSLN-positive and MSLN-negative cell lines; also recorded: relatively high levels of cytotoxicity”. Further, the “% Max Killing” value in the data set on MSLN-negative cell lines (A431 cells (MSLN MFI 5.6)) is on record as 96.82%; in the data set on MSLN-negative cell lines (BxPC3 cells (MSLN MFI 15.59)), 97.33%; in the data set on MSLN-negative cell lines (SKOV3 cells (MSLN MFI 20)) it was 74.99%; in the data set with MSLN-positive cell lines (setting [6]), 64.15%; in the data set with MSLN-positive cell lines (setting [7]) it was 75.10%; with MSLN-positive cell lines (setting [8]), 100.00%. Besides, the IC50 in the data set with MSLN-negative cell lines (A431 cells (MSLN MFI 5.6)) turned out to be 5.31 nM; in the data set on MSLN-negative cell lines (BxPC3 cells (MSLN MFI 15.59)), 2.53 nM; in the data set with MSLN-negative cell lines (SKOV3 cells (MSLN MFI 20)), 0.81 nM; in the data set with MSLN-positive cell lines (setting [6]), 3.07 nM; in the data set on MSLN-positive cell lines (setting [7]) it was 0.15 nM; in the data set with MSLN-positive cell lines (setting [8]), 0.41 nM. The body weight change entry in [1], in [2] and in data set [3] was “No body weight loss” throughout. Moreover, the “cytotoxicity on MSLN-positive cell lines” value in the data set with MSLN-positive cell lines was “killing on both MSLN-positive and MSLN-negative cell lines”. Also, the anti-tumor effect result in [2] is given as “tumor regression”. In addition, the ADCC activity result in data set [4] is on record as “weaker ADCC activity than anetumab”; in [4] (setting [9]) it was 65.06%.
For “MORAb-009: known anti-mesothelin antibody, MORAb-009 (Amatuximab)”, in the data set with mesothelin, the Kd turned out to be 0.15 nM, the “ka” value was 1.95e+06 M⁻¹ s⁻¹ and the “kd” value amounted to 0.000292 s⁻¹.
In the case of “anetumab: a human anti-mesothelin antibody”, the “% Max Killing” value was 18.58% in the data set with MSLN-negative cell lines (A431 cells (MSLN MFI 5.6)); 25.73% in the data set with MSLN-negative cell lines (BxPC3 cells (MSLN MFI 15.59)); 31.55% with MSLN-negative cell lines (SKOV3 cells (MSLN MFI 20)); 15.15% with MSLN-positive cell lines (setting [6]); 5.50% with MSLN-positive cell lines (setting [7]); 19.80% with MSLN-positive cell lines (setting [8]). The half-maximal inhibitory concentration (IC50) in the data set on MSLN-negative cell lines (A431 cells (MSLN MFI 5.6)) is above 300 nM; with MSLN-negative cell lines (BxPC3 cells (MSLN MFI 15.59)), above 300 nM; in the data set with MSLN-negative cell lines (SKOV3 cells (MSLN MFI 20)), above 300 nM; in the data set with MSLN-positive cell lines (setting [6]), above 300 nM; with MSLN-positive cell lines (setting [7]), above 100 nM; in the data set with MSLN-positive cell lines (setting [8]), above 100 nM. Besides, the “binding to rat mesothelin” value with rat mesothelin is on record as “Nether antibody bound”. Also, the “binding to cynomolgus monkey mesothelin” value in [5] was “did not bind”. In addition, the ADCC activity in data set [4] (setting [9]) was determined as 100%.
Consider `COc1cc2cc(c1Cl)N(C)C(=O)C[C@H](OC(=O)[C@H](C)N(C)C(=O)CCC(C)(C)S)[C@]1(C)O[C@H]1[C@H](C)[C@@H]1C[C@@](O)(NC(=O)O1)[C@H](OC)/C=C/C=C(\C)C2` [DM4], for which the “% Max Killing” value in the data set with MSLN-negative cell lines (A431 cells (MSLN MFI 5.6)) is on record as 92.52%; with MSLN-negative cell lines (BxPC3 cells (MSLN MFI 15.59)), 97.98%; in the data set with MSLN-negative cell lines (SKOV3 cells (MSLN MFI 20)), 81.89%; with MSLN-positive cell lines (setting [6]), 92.40%; in the data set with MSLN-positive cell lines (setting [7]), 77.49%; in the data set with MSLN-positive cell lines (setting [8]) it was 100.00%. Moreover, the concentration for half-maximal inhibition (IC50) with MSLN-negative cell lines (A431 cells (MSLN MFI 5.6)) amounted to 0.71 nM; in the data set with MSLN-negative cell lines (BxPC3 cells (MSLN MFI 15.59)) it was 0.57 nM; in the data set with MSLN-negative cell lines (SKOV3 cells (MSLN MFI 20)), 0.28 nM; in the data set on MSLN-positive cell lines (setting [6]) it was 0.24 nM; with MSLN-positive cell lines (setting [7]), 0.57 nM; with MSLN-positive cell lines (setting [8]) it was 0.1 nM.
